{"source": "patent US20060160088A1", "about": "“Diagnostics and therapeutics for diseases associated with g protein-coupled receptor 40 (gpr40)” (Bayer Healthcare AG, priority 2003, published 2006)", "origin": "cited, not measured here", "target": "GPR40 (Homo sapiens, UniProt O14842)", "sequence (O14842 whole entry)": "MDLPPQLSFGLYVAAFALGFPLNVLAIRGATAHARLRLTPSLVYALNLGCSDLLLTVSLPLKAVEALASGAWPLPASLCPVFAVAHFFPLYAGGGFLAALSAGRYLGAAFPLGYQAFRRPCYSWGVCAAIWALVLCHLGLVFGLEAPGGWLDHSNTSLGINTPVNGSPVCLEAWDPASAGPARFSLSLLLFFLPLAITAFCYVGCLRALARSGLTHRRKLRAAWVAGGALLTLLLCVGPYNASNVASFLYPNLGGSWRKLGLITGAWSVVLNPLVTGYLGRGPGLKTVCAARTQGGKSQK", "details": "activation of GPR40; most potent fatty acid tested"}
{"smiles": "CCCCCCCCC#CCC#CCC#CCCCC(=O)O", "note": "[Eicosatriynoic acid]", "values": [{"measurement": "pEC(50)", "result": 5.7}]}
